One assay concerns the target T1, SHP-1 (Mus musculus, UniProt P29351).
T1 construct: made in house
Kind of assay: In vitro PTPase assay, GST/SHP-1. Type of assay: biochemical. Conditions: for inhibitory activity against SHP-1: 3-4 μg/ml or 10-100 μg/ml. The procedure: In vitro PTPase activities were measured using the commercial protein tyrosine phosphatase assay kit (Upstate Biotechnology, Inc. (“UBI”)) following established procedure known to one of skill in the art. […] Briefly, 0.01 µg of GST/PTPase fusion proteins was incubated in 50 µl of Tris buffer (10 mM Tris, pH 7.4) containing different concentrations of inhibitors or chemicals (0-1,000 µg/ml) at 22° […] 100 µl of Malachite Green solution was added and incubated for 5 minutes, and the absorbance at 660 nm was measured after 5 minutes.
To assess the reversibility of inhibition of SHP-1 by PTPase inhibitors, GST/SHP-1 fusion protein bound on glutathione beads were pre-incubated in cold Tris buffer or Tris buffer containing the PTPase inhibitors at 4° C. for 30 minutes. The beads were then either subjected to in vitro PTPase assays or washed 3 times in Tris buffer then subjected to in vitro PTPase assays.
Briefly, individual PTPases (0.1 µg/reaction) in 50 µL of PTPase buffer (50 mM Tris, pH 7.4) were incubated at 22° C. for 10 minutes or as indicated in the absence or presence of inhibitory compounds. Substrates (0.2 mM phosphotyrosine peptide) were then added and allowed to react at 22° C. for 18 hrs. PTPase activity of individual reactions was measured by adding 100 µL of malachite green solution (UBI) and then quantifying the amounts of free phosphate cleaved by the PTPase from the peptide substrate by spectrometry (OD660 nm). […] Relative PTPase activities were calculated based on the formula: (PTPase activity in the presence of an inhibitory compound/PTPase activity in the absence of the compound)× 100%. To assess the reversibility of PTPase inhibition, GST fusion proteins of the PTPases bound on glutathione beads (Pharmacia) were pre-incubated with cold Tris buffer (50 mM Tris, pH 7.0) or Tris buffer containing the inhibitor at 4° C. for 30 minutes. The beads were then washed three times in cold Tris buffer or not washed prior to subjecting to in vitro PTPase assays.

Another assay deals with T2, MKP1 (Homo sapiens, UniProt P28562).
T2 construct: made in house; host or cells: E. coli DH5a
T2 sequence (P28562 13-367 limits assumed): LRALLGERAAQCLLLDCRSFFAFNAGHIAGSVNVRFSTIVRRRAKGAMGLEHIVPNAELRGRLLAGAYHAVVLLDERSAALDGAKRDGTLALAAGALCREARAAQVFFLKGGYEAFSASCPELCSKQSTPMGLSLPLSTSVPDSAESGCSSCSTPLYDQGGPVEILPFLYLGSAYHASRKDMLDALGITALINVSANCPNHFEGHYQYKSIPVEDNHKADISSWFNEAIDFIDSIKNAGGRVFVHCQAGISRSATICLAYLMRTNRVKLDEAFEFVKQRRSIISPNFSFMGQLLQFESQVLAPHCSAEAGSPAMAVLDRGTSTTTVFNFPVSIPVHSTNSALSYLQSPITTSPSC
Kind of assay: In vitro PTPase assay, GST/MKP1. Type of assay: biochemical. Conditions: for inhibition of MKP1: section VII comparison. As to the method:
In vitro PTPase activities were measured using the commercial protein tyrosine phosphatase assay kit (Upstate Biotechnology, Inc. (“UBI”)) following established procedure known to one of skill in the art. This assay measures the in vitro dephosphorylation of a synthetic phosphotyrosine peptide of the sequence Arg-Arg-Leu-Ile-Glu-Asp-Ala-Gle-T- -yr-Ala-Ala-Arg-Gly, wherein the tyrosine is phosphorylated (SEQ ID NO: 3). Briefly, 0.01 µg of GST/PTPase fusion proteins was incubated in 50 µl of Tris buffer (10 mM Tris, pH 7.4) containing different concentrations of inhibitors or chemicals (0-1,000 µg/ml) at 22° C. for 10 minutes, followed by addition of 0.2 mM of the phosphotyrosine peptide and incubation at 22° C. for 18 hours. 100 µl of Malachite Green solution was added and incubated for 5 minutes, and the absorbance at 660 nm was measured after 5 minutes.
In vitro PTPase assays were used to determine the effects of levamisole (Sigma), pentamidine (American Pharmaceutical Partners, Inc.), and ketoconazole (Sigma) on recombinant PTPases, following established procedures (Pathak et al., J. Imumol. 167, 3391 (2001); Pathak et al., Leukemia 16, 2285 (2002), Yi et al., J. Immunol. 169, 5978 (2002)) using a synthetic phosphotyrosine peptide or DiFMUP as the substrate as detailed above in section I.A.2.

T1 sequence (P29351 whole entry): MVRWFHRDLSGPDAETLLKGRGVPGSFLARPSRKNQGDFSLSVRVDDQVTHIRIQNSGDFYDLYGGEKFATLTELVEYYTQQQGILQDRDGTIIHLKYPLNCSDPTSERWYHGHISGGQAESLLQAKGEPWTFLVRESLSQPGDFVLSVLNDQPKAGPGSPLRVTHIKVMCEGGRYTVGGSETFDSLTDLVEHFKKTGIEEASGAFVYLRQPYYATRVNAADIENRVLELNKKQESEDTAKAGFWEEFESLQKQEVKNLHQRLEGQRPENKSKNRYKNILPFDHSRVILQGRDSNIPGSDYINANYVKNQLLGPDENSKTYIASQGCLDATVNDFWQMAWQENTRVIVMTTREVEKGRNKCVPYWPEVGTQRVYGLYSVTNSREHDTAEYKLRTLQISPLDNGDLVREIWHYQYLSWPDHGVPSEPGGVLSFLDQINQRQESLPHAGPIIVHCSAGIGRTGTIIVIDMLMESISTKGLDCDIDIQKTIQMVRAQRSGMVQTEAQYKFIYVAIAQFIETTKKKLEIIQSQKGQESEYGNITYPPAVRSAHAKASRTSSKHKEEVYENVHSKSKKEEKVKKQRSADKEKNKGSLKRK

As for `CC(=O)N1CCN(c2ccc(OCC3COC(Cn4ccnc4)(c4ccc(Cl)cc4Cl)O3)cc2)CC1` (stereo not drawn) [ketoconazole], at SHP-1, the “inhibitory activity against SHP-1” value is “no obvious inhibitory activity”. Besides, the “inhibition of MKP1” value at MKP1 is given as “substantial inhibition”.

Turning to `N=C(N)c1ccc(OCCCCCOc2ccc(C(=N)N)cc2)cc1` [pentamidine], at SHP-1, the “inhibitory activity against SHP-1” value is “no obvious inhibitory activity”. For the same molecule, the “inhibition of MKP1” value at MKP1 is recorded as “substantial inhibition”.

For the molecule `O.O.O.O.O.O.O.O.O.O=C([O-])[C@@H]1[O][Sb]2([O-])([O][Sb]34([OH])[O][C@H]([C@H](O)CO)[C@H]([O]3)[C@H](C(=O)[O-])[O]4)[O][C@H]([C@H](O)CO)[C@@H]1[O]2.[Na+].[Na+].[Na+]` [sodium stibogluconate], at SHP-1 (HPLC fractions, parental mixture at Sb 10 μg/ml), the “activity against recombinant SHP-1” value is “inactivated SHP-1”. On SHP-1 (pNPP substrate, SHP-1, SHP-2 and PTP1B), the “dephosphorylation of pNPP by these PTPases” value is on record as “similarly inhibited”. Moreover, the “inhibition of GST/SHP-1 after washing (reversibility)” value against SHP-1 (pre-incubated with inhibitor, beads washed) is reported as “not affected by washing”. Besides, on MKP1, the “inhibitory activity against MKP1” value was “no obvious inhibitory activity” and the “inhibition of MKP1” value was “no obvious effects”.

Source of the values: US20080089860A1, “Therapeutic compositions and methods useful in treating cancer” (priority 2006, published 2008).
